Test results as given in US20240425571A1, “GLYCOPROTEIN A REPETITIONS PREDOMINANT (GARP)-BINDING ANTIBODIES AND USES THEREOF” (OHIO STATE INNOVATION FOUNDATION, priority 2021, published 2024).

What was measured:
[1] = test system: B16-F1 melanomas; test: B16-F1 melanoma, adoptive T cell therapy with anti-platelet agents; assay type: in vivo, mouse; settings: for anti-tumor effect: aspirin and clopidogrel added to Cy, no T cells; for antigen-specific T cells in blood, ILNs and spleens: aspirin and clopidogrel concurrent with ACT; for efficacy and relapse-free survival: aspirin and clopidogrel plus Cy and adoptive Pmel T cell transfer
[2] = test system: MB-49 Bladder Cancer cells; test: MB-49 bladder cancer model in hLRRC32KI mice; settings: FTY720 2 mg/kg every two days, 6 doses, with PIIO-1
Protocol: A. 1×10^5 MB-49 Bladder Cancer cells were injected s.c. on the right flank of hLRRC32KI mice. […] Representative tumor curve. B. 1×10^5 MB-49 Bladder cancer cells were injected s.c. on the right flank of hLRRC32KI mice. […] Tumors were collected and perform flow cytometry on day 10. Frequency of CD8+ T cells as a proportion of live CD45+ lymphocytes (left). 1×10^5 MB-49 Bladder Cancer cells were injected s.c. on the right flank of hLRRC32KI mice. […] Tumors were collected and perform flow cytometry on day 22. […] C. Frequency of CD25+Foxp3^+ Tregs in CD4+ tumor-infiltrating T cells (left). […] UMAP dimension reduction of tumor-infiltrating CD8+ T cells from B after staining with 33 markers and spectral flow cytometry analysis. Shown is the data gated on live CD45+CD3+CD8+ T cells, subsampled on 5000 cells per sample Unsupervised clustering analysis was done using FlowSOM algorithm with an elbow method approach for cluster number determination. E. Heatmap of D showing expression levels of indicated markers by each cluster. […] Cluster differences were measured by two-tailed Student's t test.
A. Experimental scheme. […] Overall survival is analyzed by log-rank (Mantel-Cox) test. […]
A. 1×10^5 MB-49 Bladder Cancer cells were injected s.c. in the right flank of hLRRC32KI mice. […] B. Quantification of panel A. 1×10^5 MB-49 Bladder Cancer cells were injected s.c. on the right flank of hLRRC32KI mice. […]

[3] = test system: platinum resistant advanced NSCLC; test: POPLAR database analysis by LRRC32 (GARP) expression; assay type: in vivo, human; settings: for OS or disease control rate, Atezolizumab vs docetaxel: patients with high GARP expression
Excerpt: Mechanistically, PD-1 blockade works primarily by targeting the progenitor exhausted population of CD8^+ T cells in the TME (TCF-1 expressing, SlamF6 expressing, PD-1 intermediate to low expressing). These cells deliver the proliferative burst following treatment resulting in increased differentiation to the terminal exhausted population, which is responsible for tumor clearance. […] Thus, we hypothesized GARP expression can contribute to PD-1/L1 ICB resistance. To address this hypothesis, we first mined the POPLAR database which compared PD-L1 blockade Atezolizumab with chemotherapy (i.e., docetaxel) for the platinum resistant advanced NSCLC. In this multi-center international phase II trial, bulk RNAseq data from pre-treatment tumors were available for 86 patients enrolled primarily in the US sites. We divided these patients into GARP high and low expression group with median expression level of LRRC32 transcript as the cutoff. […] To further address this hypothesis, we tested the combination therapy of anti-GARP antibody huPIIO-1 and PD-1 blockade in murine Lewis Lung Carcinoma (LLC) and CMT-167 lung cancer models, both of which are considered immunologically cold tumors with resistance to single agent PD-1 ICB. To do so, the human GARP KI mice were challenged with LCC followed by treatment with 200 μg/mouse of Isotype, huPIIO-1, anti-PD-1 antibody, or a combination of huPIIO-1 and PD-1 every 3 days starting on day 8 post tumor challenge for a total of 4 injections.

[4] = test system: Baculovirus; test: Baculovirus (BV) ELISA for non-specific binding
Protocol: Baculovirus (BV) ELISA was employed as a preliminary assay to evaluate antibody's potential nonspecific binding risk.
In Baculovirus (BV) ELISA, the inventor used Rituxan Mab as reference. […] If a clone only has binding on BV, but not on 293 cells, it will be considered as having a low risk of non-specific binding.
Methods—Baculovirus ELISA. Plates are coated with 50 μl of 1:500 diluted Baculovirus sample in PBS in each well. Plates are kept at 4° C. for overnight. The plates are washed with 300 μL of wash buffer ×3 and 200 μl blocking buffer (1% BSA) is added at RT for 60 min. Plates are washed with 300 μl of wash buffer ×3 and 100 μl of diluted Abs are added at different concentrations/well, followed by RT incubation for 1 hr. Plates are washed with 300 μl of wash buffer ×6 and 100 μl of 1:5000 HRP conjugated second Ab in PBS is added followed by RT incubation for 1 hr. The plates are washed with 300 μl of wash buffer ×6. Developing buffer is added and the plate is read.

[5] = patients with low GARP expression

O=P1(N(CCCl)CCCl)NCCCO1 (stereo not drawn) [Cy, cyclophosphamide]
tumor control ([1]; Cy alone): failed to control tumors

CCCCCCCCc1ccc(CCC(N)(CO)CO)cc1 [FTY720]
effect of FTY720 on anti-tumor efficacy of PIIO-1 and T cell infiltration [2]: abrogated the anti-tumor efficacy of PIIO-1 and effectively blocked T cell infiltration

CC(=O)Oc1ccccc1C(=O)O [aspirin]
anti-tumor effect [1]: no anti-tumor effects
antigen-specific T cells in blood, ILNs and spleens [1]: sustained at higher numbers
efficacy and relapse-free survival [1]: highly effective against B16-F1 with relapse-free survival of most mice beyond 3 months

COC(=O)[C@H](c1ccccc1Cl)N1CCc2sccc2C1 [clopidogrel]
anti-tumor effect [1]: no anti-tumor effects
antigen-specific T cells in blood, ILNs and spleens [1]: sustained at higher numbers
efficacy and relapse-free survival [1]: highly effective against B16-F1 with relapse-free survival of most mice beyond 3 months

CC(=O)O[C@@]12CO[C@@H]1C[C@H](O)[C@@]1(C)C(=O)[C@H](O)C3=C(C)[C@@H](OC(=O)[C@H](O)[C@@H](NC(=O)OC(C)(C)C)c4ccccc4)C[C@@](O)([C@@H](OC(=O)c4ccccc4)[C@H]21)C3(C)C [docetaxel]
OS or disease control rate, Atezolizumab vs docetaxel [3]: did not demonstrate any difference
disease control rate [3, 5]: 9.5%

Atezolizumab: PD-L1 blockade
OS or disease control rate, Atezolizumab vs docetaxel [3]: did not demonstrate any difference
disease control rate [3, 5]: 68.2%
overall survival HR, Atezolizumab vs docetaxel ([3]; patients with low GARP expression, p=0.086): 1.89

Rituxan: Rituxan Mab used as reference in BV ELISA [reference compound]
BV ELISA with purified IgG, raw BV binding data ([4]; Ab. Conc. 0.15625 ug/ml): 12.1
BV ELISA with purified IgG, raw BV binding data ([4]; Ab. Conc. 0.3125 ug/ml): 13.7
BV ELISA with purified IgG, raw BV binding data ([4]; Ab. Conc. 0.625 ug/ml): 13.7
BV ELISA with purified IgG, raw BV binding data ([4]; Ab. Conc. 1.25 ug/ml): 13.0
BV ELISA with purified IgG, raw BV binding data ([4]; Ab. Conc. 2.5 ug/ml): 17.0
BV ELISA with purified IgG, raw BV binding data ([4]; Ab. Conc. 5 ug/ml): 22.7
BV ELISA with purified IgG, raw BV binding data ([4]; Ab. Conc. 10 ug/ml): 66.0
BV ELISA with purified IgG, raw BV binding data ([4]; Ab. Conc. 20 ug/ml): 98.8
